Data on four molecules can be found in publication PMC7226963, “CCN-Based Therapeutic Peptides Modify Pancreatic Ductal Adenocarcinoma Microenvironment and Decrease Tumor Growth in Combination with Chemotherapy” (Cells, 2020).

Like-named read-outs stand apart in the source and are kept apart here.

Data set [1] is described as follows: Gemcitabine and metabolites in tumor and plasma, with or without BLR200 (HPLC-MS). The conditions noted are these: for Change of concentration (tumor/plasma ratio) in BLR200-treated mice: BLR200 10 µg/kg i.p. every other day from day 11, 4 treatments, gemcitabine 100 mg/kg i.v. single bolus day 17, 30 min and 1 h, n = 4, not statistically significant.
Method: FC1199-bearing mice were treated i.p with BLR200 (10 µg/kg) from day 11 for a total of 4 treatments, every other day. On day 17, mice were treated with gemcitabine (100 mg/kg, i.v., single bolus). After 30 min and 1 h, plasma and tumors were collected for HPLC measurement of gemcitabine and metabolites. The plasma fraction added with 10 µL tetrahydrouridine (THU) 2.5 mg/mL was immediately separated by centrifugation at 3200× g for 15 min at 4 °C and stored at −20 °C until analysis. Tumors were immediately frozen in liquid nitrogen and stored at −20 °C until analysis. Extraction and analysis of gemcitabine (dFdc, dFdCTP, and dFdU) in tumors and plasma were carried out according to Bapiro et al. [27].
Briefly, tumors were weighted, spiked with 2′-deossicitidine as the internal standard (IS) at a final concentration of 1 ng/mg, and homogenized with ice-cold acetonitrile (ACN) 50% (v/v) containing THU 25 µg/mL in a Precellys Evolution homogenizer (Bertin Technologies S.A.S., Montigny-le-Bretonneux, France). Fifty microliters of homogenate were added with 200 µL ACN 50% (v/v), vortexed, and centrifuged at 13,200 rpm for 10 min at 4 °C. The supernatant was dried under N2 flux and the residue reconstituted with 100 µL of milliQ water. Concerning plasma, 25 µL were spiked with 1 µL of 10 µg/mL of IS and processed in the same way as tumors. The reconstituted tumors and plasma extracts were analyzed by injecting 2 µL in a UHPLC System connected to a LCMS-8060 (Shimadzu Scientific Instruments, Columbia, MD, USA) with a dual ion source. […] The mass spectrometer worked with an electrospray ionization source operating both in the negative and positive Multiple Reaction Monitoring mode, quantifying target ions m/z 264→59.25 for gemcitabine (positive), m/z 502→158.9 for dFdCTP (negative), m/z 263.1→220 for dFdU (negative), and m/z 228.1→112.05 for IS (positive). The lower limit of quantitation (LOQ) was 0.2 ng/mg for gemcitabine, 0.4 ng/mg for dFdU, and 0.5 ng/mg for dFdCTP in tumor samples, while it was 0.01 µg/mL for gemcitabine and 0.02 µg/mL for dFdU in plasma samples.
For data set [2], the system named is FC1199 cells. Description: FC1199 proliferation assay (crystal violet). It counts as cell-based, murine. The conditions noted are these: Mus musculus, 72 h, 72 h incubation, mean and SD of two experiments, read-out: IC50 of gemcitabine on FC1199 cell proliferation. Here is the method:
FC1199 were seeded into 96-well plates in DMEM supplemented with 5% FCS. At 24 h after seeding, cells were exposed to increasing concentrations of BLR100 and BLR200 alone or in combination with increasing concentrations of gemcitabine. After a 72 h incubation, cells were fixed and stained with crystal violet solution (Sigma–Aldrich, Merck Life Science, Milano, Italy). The staining was eluted with a 1:1 ethanol/0.1 M sodium citrate solution, and the absorbance at 595 nm was measured. Each condition was tested in triplicate.

Data set [3] relates to FC1199 orthotopic tumors. Description: Orthotopic FC1199 PDAC model: tumor burden (pancreas weight) and ascites. It is filed as in vivo, C57BL/6 mice. To be noted: peptides 4.5 µg/kg i.p. from day 11 or gemcitabine 40 mg/kg i.v.; n = 7. Here is the method: Six- to eight-week old female C57BL/6 mice (Charles River Laboratories, Lecco, Italy) were maintained under specific-pathogen-free conditions, with constant temperature and humidity, and handled using aseptic procedures. FC1199 cells (5 × 10^4) were implanted orthotopically in the pancreas as described. Gemcitabine was administered i.v. at 40 mg/kg (see scheme in Figure 4A). Control groups received the same volume of vehicle. Mice were weighed every other day as a measure of drug toxicity. […] Tumor burden was evaluated at the end of the experiment, as pancreas weight. Peritoneal ascitic fluid was collected with a syringe and the volume recorded. Animals with a collectable peritoneal fluid (≥100 µL) were considered positive for ascites. Liver of mice were analyzed for macroscopic metastases, and no metastatic foci was detected in any group.

The test system of data set [4] is KPC tumor. The conditions noted are these: LSL-KrasG12D/+;LSL-Trp53R172H/+;Pdx-1-Cre (KPC) mice; cited from earlier work. An excerpt: (§1) CCN2 has recently been proposed as a target for PDAC therapy. […] FG-3019 (pamrevlumab) is currently in a Phase 3 clinical trial to evaluate its efficacy and safety as neoadjuvant treatment in combination with gemcitabine plus nab-paclitaxel in the treatment of locally advanced, unresectable pancreatic cancer.

Data set [5] concerns PANC-1 orthotopic. The conditions noted are these: PANC-1 orthotopic preclinical model; cited from earlier work.
Excerpt: as §1

Consider `Nc1ccn([C@@H]2O[C@H](COP(=O)(O)OP(=O)(O)OP(=O)(O)O)[C@@H](O)C2(F)F)c(=O)n1` [dFdCTP, gemcitabine triphosphate], for which, in data set [1] (gemcitabine 100 mg/kg i.v. single bolus, with or without BLR200 10 µg/kg, 30 min and 1 h, LOQ 0.5 ng/mg in tumor), the “Concentration of the metabolite in tumors and plasma” value was “undetectable in both groups”.

For `O=c1ccn([C@@H]2O[C@H](CO)[C@@H](O)C2(F)F)c(=O)[nH]1` [dFdU, 2′,2′-difluorodeoxyuridine], the “Change of concentration (tumor/plasma ratio) in BLR200-treated mice” value in data set [1] is reported as “small increase”.

With `Nc1ccn([C@@H]2O[C@H](CO)[C@@H](O)C2(F)F)c(=O)n1` [gemcitabine, Gemcitabine], the IC50 in data set [2] (gemcitabine alone, DMEM 5% FCS, absorbance 595 nm) stood at 13.5 ± 4.6 nM; in data set [2] (gemcitabine with BLR100 20 nM) it was 13.2 ± 3.9 nM; in data set [2] (gemcitabine with BLR100 100 nM) it was 11.9 ± 3.7 nM. In data set [1], the “Change of concentration (tumor/plasma ratio) in BLR200-treated mice” value is “small increase”. The “Effect on tumor growth as monotherapy, late start” value in data set [3] is reported as “only a marginal effect on tumor growth”.

B1: FG-3019: CCN2-targeting mAb (antibody, chains of the INN, looked up, V domains shown)
VH: EGQLVQSGGGLVHPGGSLRLSCAGSGFTFSSYGMHWVRQAPGKGLEWVSGIGTGGGTYSTDSVKGRFTISRDNAKNSLYLQMNSLRAEDMAVYYCARGDYYGSGSFFDCWGQGTLVTVSS
VL: DIQMTQSPSSLSASVGDRVTITCRASQGISSWLAWYQQKPEKAPKSLIYAASSLQSGVPSRFSGSGSGTDFTLTISSLQPEDFATYYCQQYNSYPPTFGQGTKLEIK
B1: the “Tumor response to gemcitabine” value in data set [4] is “enhanced tumor response”. Moreover, the “Tumor growth and metastasis” value in data set [5] is “inhibited tumor growth and metastasis”.
